# Test results reported in PMC8219897 (Water Research X, 2021).
# Like-named read-outs stand apart in the source and are kept apart here.
# Experiments:
# [1] = target: T1, human estrogen receptor alpha (ERα) (Homo sapiens, UniProt P03372); test: Yeast estrogen screen; assay type: cell-based; conditions: for Estrogenic effects in single testing (in words): single compounds, Figure SI 5B
# T1 sequence (P03372 1-595): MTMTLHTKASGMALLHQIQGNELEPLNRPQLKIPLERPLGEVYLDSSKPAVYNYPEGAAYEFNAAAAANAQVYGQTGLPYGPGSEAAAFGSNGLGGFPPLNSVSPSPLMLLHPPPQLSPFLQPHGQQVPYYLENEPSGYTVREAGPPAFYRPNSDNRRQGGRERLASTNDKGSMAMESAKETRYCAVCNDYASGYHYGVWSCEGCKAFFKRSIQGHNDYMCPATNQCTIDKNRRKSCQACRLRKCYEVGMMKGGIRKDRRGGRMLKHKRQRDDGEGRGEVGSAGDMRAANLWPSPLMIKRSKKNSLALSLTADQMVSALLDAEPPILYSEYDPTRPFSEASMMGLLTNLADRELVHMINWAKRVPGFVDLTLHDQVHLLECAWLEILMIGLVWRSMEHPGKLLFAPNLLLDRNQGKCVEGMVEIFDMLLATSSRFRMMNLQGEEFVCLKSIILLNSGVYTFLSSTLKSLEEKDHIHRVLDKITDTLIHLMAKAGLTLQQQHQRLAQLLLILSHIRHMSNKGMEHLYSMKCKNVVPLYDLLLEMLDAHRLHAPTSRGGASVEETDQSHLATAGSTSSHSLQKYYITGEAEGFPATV
# aquatic life = conditions: proposed by ECHA; ref ECHA; cited from earlier work
# [2] = aqueous solution, pseudo-first-order kinetic; ref Kovacic et al. 2019; cited from earlier work
# ERα = conditions: read-out: IC50, competitive binding to ERα; ref Nakagawa and Suzuki 2001; cited from earlier work
# Aliivibrio fischeri = assay type: cell-based; conditions: present study
# [3] = muscle, liver and gill tissue of wild fish, Panlong River; ref Wang et al. 2016; cited from earlier work
# [4] = tested on: human placental JEG-3 cells; conditions: read-out: EC50, cytotoxic effects, ref Perez-Albaladejo et al. (2019); cited from earlier work
# P450 aromatase = conditions: JEG-3 cells, at 20 µM; ref Perez-Albaladejo et al. (2019); cited from earlier work
# [5] = tested on: estrogen-related receptor; conditions: recombined yeast strains; ref Li et al. (2010); cited from earlier work
# MCF-7 cells = conditions: read-out: EC50, estrogen-like effects, ref Kitamura et al. 2005; cited from earlier work
# NIH3T3 cells = conditions: read-out: EC50, anti-androgenic effects, ref Kitamura et al. 2005; cited from earlier work
# zebrafish embryos = conditions: ref McCormick et al. (2011); cited from earlier work
# [6] = leachates of UV irradiated coating B
compound,measurement,setting,value
"CC(C)(c1ccc(O)cc1)c1ccc(O)cc1 [BPA, bisphenol A]",Mean contribution to estrogenicity of the quantified substances (toxic units),[1]; leachates of UV irradiated coating A,3%
same,Mean contribution to estrogenicity of the quantified substances (toxic units),[1]; [6],16%
same,"Predicted no effect concentration (PNEC), freshwater",aquatic life,18 µg/L
same,"Predicted no effect concentration (PNEC), freshwater sediments",aquatic life,1.2 µg/g dry weight
same,Half-life time of degradation under UV irradiation,[2],about 6 h
same,IC50,ERα,10 µM
"CC(C)(c1ccccc1)c1ccc(O)cc1 [4CP, 4-cumylphenol]",Potency compared to BPA in the luminescent bacteria assay,Aliivibrio fischeri,more potent
same,EC50,[1],0.212 µM
same,Mean contribution to estrogenicity of the quantified substances (toxic units),[1]; [6],1%
same,"Predicted no effect concentration (PNEC), freshwater",aquatic life,14.2 µg/L
same,"Predicted no effect concentration (PNEC), freshwater sediments",aquatic life,3.58 µg/g dry weight
same,Bioconcentration factor (BCF),[3],up to 10
same,EC50,[4],65 µM
same,Increase of P450 aromatase activity,P450 aromatase,1.3 fold
"CC(C)(c1ccc(OCC(O)CO)cc1)c1ccc(OCC(O)CO)cc1 (stereo not drawn) [Bis-HPPP, bisphenol A bis(2,3-dihydroxypropyl) ether]",Estrogenic effects in single testing (in words),[1],not estrogenic
CC(C)(C)c1ccccc1O [2-tert-butylphenol],Effect on estrogen-related receptor gamma,[5],inverse agonistic effects
"CC(C)(c1ccc(O)cc1)c1ccc(O)c(O)c1 [BPA-I10, 5-hydroxybisphenol A]",EC50,"[1]; read-out: EC50, yeast estrogen screen, single compound, present results",31 µM
same,"EC50, yeast estrogen screen","[1]; single compound, present results",7.5 µg/mL
same,Estrogenic effects in single testing (in words),[1],showed estrogenic potential
same,IC50,ERα,50 µM
same,EC50,MCF-7 cells,1.8 µM
same,EC50,NIH3T3 cells,14 µM
"Oc1ccccc1-c1ccccc1 [2PP, 2-phenylphenol]",Estrogenic effects in single testing (in words),[1],showed estrogenic potential
"COc1ccc(C(C)(C)c2ccc(O)cc2)cc1 [BPA-I11, 4-[1-(4-methoxyphenyl)-1-methylethyl]phenol]",Potency compared to BPA in the luminescent bacteria assay,Aliivibrio fischeri,more potent
same,EC50,[1],0.666 µM
same,Mean contribution to estrogenicity of the quantified substances (toxic units),[1]; [6],2%
same,Half maximal lethal concentration,zebrafish embryos,up to 0.66 mg/l
